Experimental data: patent US20260285850A1, “SUBSTITUTED OXAZOLIDINONES AND IMIDAZOLINONES AS HERBICIDES” (FMC CORPORATION, priority 2023, published 2026)

Assays:
Format in all cases: in vivo
[1] = test system: blackgrass (Alopecurus myosuroides); experiment: Test A preemergence soil spray, visual injury rating 0-100; settings: 10 days
In short: (§1)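 Plants in a loam and sand soil blend were treated with each test chemical, in a non-phytotoxic solvent system including surfactant, either sprayed on seeded soil before emergence or applied after emergence at the one- to two-leaf stage. Ten days later in the greenhouse, plants were compared with untreated controls and visually rated from 0 (no effect) to 100 (complete control).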

[2] = test system: wheat (Triticum aestivum); experiment: as above; settings: 10 days
In short: as §1

[3] = test system: ryegrass, Italian (italian ryegrass, Lolium multiflorum); experiment: as above; settings: 10 days
In short: as §1

[4] = test system: green foxtail (Setaria viridis); experiment: as above; settings: 10 days
In short: as §1

[5] = test system: corn (Zea mays); experiment: as above; settings: 10 days
In short: as §1

[6] = test system: barnyardgrass (Echinochloa crus-galli); experiment: as above; settings: 10 days
In short: as §1

[7] = test system: soybean (Glycine max); experiment: as above; settings: 10 days
In short: as §1

[8] = test system: oat, wild (wild oat, Avena fatua); experiment: as above; settings: 10 days
In short: as §1

[9] = test system: ragweed (common ragweed, Ambrosia artemisiifolia); experiment: as above; settings: 10 days
In short: as §1

[10] = test system: palmer (palmer amaranth, palmer pigweed, Amaranthus palmeri); experiment: as above; settings: 10 days
In short: as §1

[11] = test system: kochia (Bassia scoparia); experiment: as above; settings: 10 days
In short: as §1

[12] = test system: rice (Oryza sativa); experiment: Test B flooded paddy test, visual plant response rating 0-100; settings: 250 g ai/ha, Flood, applied to paddy water, evaluated after 13 days
In short: (§2)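 In this flooded assay, 2-leaf seedlings received compound through the water layer, kept at 3 cm over the soil. Plants were held 13 days in a greenhouse and then visually compared with control pots.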

[13] = test system: barnyardgrass (Echinochloa crusgalli); experiment: as above; settings: 250 g ai/ha, Flood, applied to paddy water, evaluated after 13 days
In short: as §2

[14] = test system: ducksalad (Heteranthera limosa); experiment: as above; settings: 250 g ai/ha, Flood, applied to paddy water, evaluated after 13 days
In short: as §2

[15] = test system: sedge, umbrella (small-flower umbrella sedge, Cyperus difformis); experiment: as above; settings: 250 g ai/ha, Flood, applied to paddy water, evaluated after 13 days
In short: as §2

[16] = test system: blackgrass (Alopecurus myosuroides); experiment: Test A postemergence application, visual injury rating 0-100
In short: as §1

[17] = test system: wheat (Triticum aestivum); experiment: as above
In short: as §1

[18] = test system: ryegrass, Italian (italian ryegrass, Lolium multiflorum); experiment: as above
In short: as §1

[19] = test system: horseweed (Erigeron canadensis); experiment: as above
In short: as §1

[20] = test system: green foxtail (Setaria viridis); experiment: as above
In short: as §1

[21] = test system: corn (Zea mays); experiment: as above
In short: as §1

[22] = test system: galium (catchweed bedstraw, Galium aparine); experiment: as above
In short: as §1

[23] = test system: barnyardgrass (Echinochloa crus-galli); experiment: as above
In short: as §1

[24] = test system: soybean (Glycine max); experiment: as above
In short: as §1

[25] = test system: oat, wild (wild oat, Avena fatua); experiment: as above
In short: as §1

[26] = test system: ragweed (common ragweed, Ambrosia artemisiifolia); experiment: as above
In short: as §1

[27] = test system: palmer (palmer amaranth, palmer pigweed, Amaranthus palmeri); experiment: as above
In short: as §1

[28] = test system: kochia (Bassia scoparia); experiment: as above
In short: as §1

[29] = 62 g ai/ha, 0 = no effect, 100 = complete control
[30] = 62 g ai/ha, postemergence, 10 days, 0 = no effect, 100 = complete control
[31] = Postemergence, 16 g ai/ha, greenhouse 10 days, 0 no effect, 100 complete control

CC1(C(=O)NC2CC=C(C(=O)O)C2)CN(c2cc(Cl)cc(Cl)c2)C(=O)O1 (stereo not shown) [Compound 158]
98: Plant response rating, Sedge, Umbrella (0 to 100 scale, 0 is no effect and 100 is complete control) [15]
40: Wheat plant response rating ([2]; 16 g ai/ha, 0 to 100 scale) | Barnyardgrass plant response rating ([6]; 16 g ai/ha, 0 to 100 scale)
70: Ryegrass, Italian plant response rating (0-100) [3, 29] | Ragweed plant response rating (0-100) [9, 29] | Plant response rating, Ducksalad (0 to 100 scale, 0 is no effect and 100 is complete control) [14] | Wheat plant response rating (0 to 100 scale) [17, 31] | Horseweed plant response rating (0-100) [19, 30]
100: Blackgrass plant response rating (0-100) [16, 30] | Corn plant response rating (0-100) [21, 30] | Corn plant response rating (0 to 100 scale) [21, 31] | Barnyardgrass plant response rating (0-100) [23, 30]
30: Oat, Wild plant response rating (0-100) [8, 29] | Kochia plant response rating ([11]; 16 g ai/ha, 0 to 100 scale) | Horseweed plant response rating (0 to 100 scale) [19, 31]
60: Corn plant response rating (0-100) [5, 29] | Soybean plant response rating (0 to 100 scale) [24, 31] | Ragweed plant response rating (0-100) [26, 30]
20: Soybean plant response rating (0-100) [7, 29] | Oat, Wild plant response rating (0 to 100 scale) [25, 31]
80: Wheat plant response rating (0-100) [2, 29] | Kochia plant response rating (0-100) [11, 29] | Blackgrass plant response rating (0 to 100 scale) [16, 31] | Wheat plant response rating (0-100) [17, 30] | Ryegrass, Italian plant response rating (0-100) [18, 30] | Ryegrass, Italian plant response rating (0 to 100 scale) [18, 31] | Kochia plant response rating (0 to 100 scale) [28, 31]
50: Blackgrass plant response rating (0-100) [1, 29] | Pigweed, Palmer plant response rating ([10]; 16 g ai/ha, 0 to 100 scale) | Plant response rating, Rice (0 to 100 scale, 0 is no effect and 100 is complete control) [12] | Ragweed plant response rating (0 to 100 scale) [26, 31]
90: Foxtail, Green plant response rating (0-100) [4, 29] | Barnyardgrass plant response rating (0-100) [6, 29] | Pigweed, Palmer plant response rating (0-100) [10, 29] | Plant response rating, Barnyardgrass (0 to 100 scale, 0 is no effect and 100 is complete control) [13] | Foxtail, Green plant response rating (0-100) [20, 30] | Foxtail, Green plant response rating (0 to 100 scale) [20, 31] | Galium plant response rating (0-100) [22, 30] | Galium plant response rating (0 to 100 scale) [22, 31] | Barnyardgrass plant response rating (0 to 100 scale) [23, 31] | Soybean plant response rating (0-100) [24, 30] | Oat, Wild plant response rating (0-100) [25, 30] | Pigweed, Palmer plant response rating (0-100) [27, 30] | Pigweed, Palmer plant response rating (0 to 100 scale) [27, 31] | Kochia plant response rating (0-100) [28, 30]
0: Blackgrass plant response rating ([1]; 16 g ai/ha, 0 to 100 scale) | Ryegrass, Italian plant response rating ([3]; 16 g ai/ha, 0 to 100 scale) | Foxtail, Green plant response rating ([4]; 16 g ai/ha, 0 to 100 scale) | Corn plant response rating ([5]; 16 g ai/ha, 0 to 100 scale) | Soybean plant response rating ([7]; 16 g ai/ha, 0 to 100 scale) | Ragweed plant response rating ([9]; 16 g ai/ha, 0 to 100 scale)
10: Oat, Wild plant response rating ([8]; 16 g ai/ha, 0 to 100 scale)
